Reference: patent EP0322133A1, “Quinazoline derivatives” (SmithKline Beecham Intercredit B.V., priority 1987, dated 1989)
Where a name gives a salt, the structure may show the parent alone.

Tested on: pentagastrin stimulated gastric acid secretion
Assay: Rat lumen perfused stomach (modified Ghosh and Schild procedure)
Type: in vivo
Details: i.v. administration
Source text: Using a modification of the procedure described by Ghosh and Schild (Br. J. Pharmacology, 13, 54, 1958), the compounds of the following Examples were found on i.v. administration at a concentration of 10µmole/kg to cause an inhibition of pentagastrin stimulated gastric acid secretion as indicated in the following Table.

Compound	Rat G.S. % inhibition @ 10µmole/kg
2-phenylethylamino-4-(2-methylphenylamino)quinazoline [Example 16]	31%

Same assay, conditions: iv, i.v. administration, 10µmole/kg, read-out: Rat G.S. % inhibition @ 10µmole/kg

Compound	inhibition at 10 µmol/kg
Cc1ccccc1Nc1nc(N2CCCC2)nc2ccccc12 [Example 8, 2-pyrrolidino-4-(2-methylphenylamino)quinazoline]	17%
Cc1ccccc1CNc1nc(N)nc2ccccc12 [Example 25, 2-amino-4-(2-methylbenzylamino)quinazoline]	24%
CN(c1ccccc1)c1nc(N(C)c2ccccc2)c2ccccc2n1 [Example 20, 2,4-Bis-(N-methylphenylamino)quinazoline hydrochloride]	72%
COc1cccc2c(Nc3ccccc3C)nc(N(C)C)nc12 [Example 5, 2-dimethylamino-8-methoxy-4-(2-methylphenylamino)quinazoline]	37%
COc1cccc2c(Nc3ccccc3C)nc(N(C)c3ccccc3)nc12 [Example 21, 2-(N-methylphenylamino)-4-(2-methylphenylamino)-8-methoxyquinazoline]	37%
CNc1nc(Nc2ccccc2C)c2cccc(OC)c2n1 [Example 13, 2-methylamino-8-methoxy-4-(2-methylphenylamino)quinazoline]	20%
COc1cccc2c(NCc3ccccc3C)nc(N)nc12 [Example 4, 2-amino-8-methoxy-4-(2-methylbenzylamino)quinazoline]	37%
Cc1ccccc1Nc1nc(N(C)c2ccccc2)nc2ccccc12 [Example 22, 2-(N-methylphenylamino)-4-(2-methylphenylamino)quinazoline hydrochloride]	27%
Cc1cc(F)ccc1Nc1nc(N(C)c2ccccc2)c2ccccc2n1 [Example 32, 2-[(2-methyl-4-fluorophenyl)amino]-4-(N-methylphenylamino)quinazoline hydrochloride]	96%
COc1cccc2c(Nc3ccccc3C)nc(N)nc12 [Example 1, 2-amino-8-methoxy-4-(2-methylphenylamino)quinazoline]	60%
COc1cccc2c(N(C)c3ccccc3)nc(N)nc12 [Example 29, 2-amino-4-(N-methylphenylamino)-8-methoxyquinazoline hydrochloride]	13%
CN(c1ccccc1)c1nc(Nc2ccccc2)nc2ccccc12 [Example 27, 2-phenylamino-4-(N-methylphenylamino)quinazoline hydrochloride]	71%
COc1cccc2c(N(C)c3ccccc3)nc(Nc3ccccc3C)nc12 [Example 24, 4-(N-methylphenylamino)-2-(2-methylphenylamino)-8-methoxyquinazoline]	97%
COc1ccc(Nc2nc(N)nc3c(OC)cccc23)c(C)c1 [Example 3, 2-amino-8-methoxy-4-(2-methyl-4-methoxyphenylamino)quinazoline]	16%
CCc1ccc2nc(N)nc(Nc3ccccc3C)c2c1 [Example 11, 2-amino-4-(2-methylphenylamino)-6-ethylquinazoline]	28%
Cc1ccccc1Nc1nc(N(C)c2ccccc2)c2ccccc2n1 [Example 26, 2-(2-methylphenylamino)-4-(N-methylphenylamino)quinazoline hydrochloride]	79%
COc1cccc2c(NCc3ccccc3)nc(N)nc12 [Example 2, 2-amino-8-methoxy-4-benzylaminoquinazoline]	25%
Cc1ccccc1Nc1nc(N)nc2ccccc12 [Example 7, 2-amino-4-(2-methylphenylamino)quinazoline]	20%
Cc1ccccc1Nc1nc(N)nc2c(C)cccc12 [Example 6, 2-amino-8-methyl-4-(2-methylphenylamino)quinazoline]	48%
COc1cccc2c(Nc3ccccc3C)nc(N3CCCC3)nc12 [Example 15, 2-pyrrolidino-8-methoxy-4-(2-methylphenylamino)quinazoline]	31%
Cc1cc(O)ccc1Nc1nc(N(C)c2ccccc2)c2ccccc2n1 [Example 30, 2-[(4-hydroxy-2-methylphenyl)amino]-4-(N-methylphenylamino) quinazoline hydrochloride]	23%
COc1ccccc1Nc1nc(N)nc2c(OC)cccc12 [Example 18, 2-amino-8-methoxy-4-(2-methoxyphenylamino)quinazoline]	12%
Cc1ccccc1CNc1nc(N(C)c2ccccc2)c2ccccc2n1 [Example 31, 2-(2-methylbenzylamino)-4-(N-methylphenylamino)quinazoline hydrochloride]	8%
